This note sets out measurements from US6906205B2, “Spiro and dispiro 1,2,4-trioxolane antimalarials” (Medicines for Malaria Venture MMV, priority 2002, dated 2005).

≈ marks a conversion by molar mass, not a printed value.

One experiment concerns P. berghei ANKA strain. Kind of experiment: treatment: 3x3 mg/kg and 3x1 mg/kg po divided doses in infected mice. The experiment is classed as in vivo, Plasmodium berghei. The settings on record: for Activity (%) p.o. SSV: percent reduction of parasitemia day 4; for infected mice cured: 3×3 mg/kg po on days 1, 2, 3 post-infection, SSV. The protocol:
Moro NMRI male mice (Fü Albino specific pathogen free) weighing 18±2 g were infected intravenously (i.v.) with 2×10^7 P. berghei ANKA strain-infected erythrocytes from donor mice on day 0 of the experiment. From donor mice with circa 30% parasitemia, heparinized blood was taken and diluted in physiological saline to 10^8 parasitized erythrocytes per ml. An aliquot (0.2 ml) of this suspension was injected i.v. into experimental and control groups of mice. In untreated control mice, parasitemia rose regularly to 40 to 50% by day 3 post-infection and 70 to 80% by day 4 post-infection. The mice died between days 5 and 7 post-infection. Throughout the experiments, mice were kept in groups of three or five animals in Makrolon type II cages in an air-conditioned animal room at 22 to 23° C. A diet with p-aminobenzoic acid (PABA) of 45 mg (NAFAG FUTTER© food N^o 9009 PAB-45) per kg of body weight, and tap water is available ad libitum.
OZ compounds were prepared at an appropriate concentration, either as a solution or a suspension containing SSV (0.5% w/v CMC, 0.5% v/v benzyl alcohol, 0.4% v/v Tween 80, and 0.9% w/v sodium chloride in water). They were administered per os (p.o.) in a total volume of 0.01 ml per gram of mouse. The activity of the compound was determined by a variety of methods outlined in subsequent sections. Survival time was also recorded, and survival to day 30 post-infection was considered to be a cure.
The second experiment consists of administration of divided 3×3 mg/kg and 3×1 mg/kg po doses administered on days 1, 2, and 3 post-infection. On day 4 post-infection, blood smears of all animals were prepared and stained with Giemsa. Parasitemia was determined microscopically, and the difference between the mean value of the control group (taken as 100%) and those of the experimental groups was calculated and expressed as percent reduction. Compounds were administered orally in the SSV vehicle.

Experiment [1] has as its system ANKA strain of P. berghei. Briefly: single dose STI in vivo screen in infected mice. On the set-up: species or system Plasmodium berghei. The conditions noted are these: for Activity (%) 3 mg/kg SSV po: single 3 mg/kg po in SSV; for Activity (%) 10 mg/kg SSV po: single 10 mg/kg po in SSV; for Activity (%) po / Survival (days) po: single 10 mg/kg po in 3% ethanol and 7% Tween 80; for Activity (%) sc / Survival (days) sc: single 10 mg/kg sc in 3% ethanol and 7% Tween 80. Put shortly:
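Groups of 3-5 Moro SPF or NMRI mice infected with the ANKA strain of P. berghei received a single dose of trioxolane on day one post-infection. The compound was given in 3% ethanol and 7% Tween 80 or in SSV (0.5% w/v CMC, 0.5% v/v benzyl alcohol, 0.4% v/v Tween 80, 0.9% w/v sodium chloride in water). Antimalarial activity was scored as percent reduction in parasitemia on day three and as survival time versus untreated controls. Survival to day 30 counted as cure.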

Experiment [2] has as its system Schistosoma mansoni adult schistosomes (49-day-old). Briefly: effect on adult schistosomes (49-day-old) in mice. The class given is in vivo. The conditions noted are these: single 400 mg/kg per os. As for the experimental part:
Mice were infected with 100 Schistosoma mansoni cercariae […]. Each group was treated per os with OZ compounds at single doses of 200, 400, and 600 mg/kg. […] All groups were killed 4 weeks after treatment and the liver and intestine were removed and separated. The liver and intestine were compressed and alive male and female worms could be seen and counted.

Experiment [3] has as its system Schistosoma mansoni 21-day-old schistosomules. Briefly: effect on 21-day-old schistosomules in mice. The settings on record: single 200 mg/kg per os, female mice. The experiment is classed as in vivo. As for the experimental part: All groups were killed 4 weeks after treatment and the liver and intestine were removed and separated. The liver and intestine were compressed and alive male and female worms could be seen and counted. The effect of the compounds was evaluated by mean total and female worm burden.

For experiment [4], the system named is P. falciparum NF54 strain (sensitive to standard antimalarials). Kind of experiment: semiautomated microdilution assay, [3H]-hypoxanthine incorporation, NF54 strain. The class given is cell-based, Plasmodium falciparum. The conditions noted are these: NF54 strain, 72 h incubation. Put shortly: (§1)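 Intraerythrocytic stages from unsynchronised stock cultures are exposed to test compounds in a semiautomated microdilution format, and fifty percent inhibitory concentrations are then fitted by logit regression.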
(Dilution methods test growth across graded concentrations, often in twofold steps.)

Experiment [5] has as its system P. falciparum K1 strain (Thailand resistant to chloroquine). Kind of experiment: semiautomated microdilution assay, [3H]-hypoxanthine incorporation, K1 strain. The settings on record: K1 strain, 72 h incubation. The experiment is classed as cell-based, Plasmodium falciparum. Put shortly: as §1
Where [6] appears, read: 3 × 1 mg/kg days 1, 2, 3 post-infection.
[7] abbreviates: 3 × 3 mg/kg days 1, 2, 3 post-infection.
Setting [8] is: percent reduction in parasitemia day 3 post-infection.
Setting [9] is: percent reduction in parasitemia day 3 post-infection, mice, 10 mg/kg.
Setting [10] is: untreated control 5.6 ± 0.3, 10 mg/kg.
Where [11] appears, read: percent reduction in parasitemia day 3 post-infection, mice.

Consider `O=C1CN(C(=O)CC2CCC3(CC2)OOC2(O3)C3CC4CC(C3)CC2C4)CCN1` (stereo not drawn) [compound 296], for which, in the experiment with P. berghei ANKA strain (setting [6]), the “Survival (days) p.o. SSV” value stood at 7.8 days and the “Activity (%) p.o. SSV” value is on record as 49%. In addition, in the experiment on P. berghei ANKA strain (setting [7]), the “Survival (days) p.o. SSV” value was found to be 9.4 days and the “Activity (%) p.o. SSV” value came out at 94%.
The like results for `CS(=O)(=O)O.NC(=O)CCNCC1CCC2(CC1)OOC1(O2)C2CC3CC(C2)CC1C3` (stereo not drawn) [compound 319] were, in that order, 13 days, 92%, 11.2 days and 99.97%.
Taken in the same sequence, the figures for `CS(=O)(=O)O.O=C(O)CNCC1CCC2(CC1)OOC1(O2)C2CC3CC(C2)CC1C3` (stereo not drawn) [compound 309] were 9.4 days, 66%, 9.2 days and 99%.
In the case of `NC1CCN(C(=O)C[C@H]2CC[C@]3(CC2)OO[C@]2(O3)C3CC4CC(C3)CC2C4)CC1` [OZ339], in experiment [1] (setting [8]), the “Activity (%) 3 mg/kg SSV po” value was determined as 99.65% and the “Activity (%) 10 mg/kg SSV po” value was determined as 99.95%. For the same compound, in the experiment with P. berghei ANKA strain, the infected mice cured result is reported as “⅗”.
Taken in the same sequence, the figures for `c1cc(OC[C@H]2CC[C@]3(CC2)OO[C@]2(O3)C3CC4CC(C3)CC2C4)ccn1` [OZ301] were 97%, 100% and “⅕”.
With `NC(=O)c1cn(CC2CCC3(CC2)OOC2(O3)C3CC4CC(C3)CC2C4)cn1` (stereo not drawn) [compound 320], the “Survival (days) p.o. SSV” value was determined as 8.6 days with P. berghei ANKA strain (setting [6]) and 9.6 days in the experiment with P. berghei ANKA strain (setting [7]). The “Activity (%) p.o. SSV” value with P. berghei ANKA strain (setting [6]) is recorded as 50%; with P. berghei ANKA strain (setting [7]), 96%.
Regarding `Oc1ccc(C2CCC3(CC2)OOC2(O3)C3CC4CC(C3)CC2C4)cc1` (stereo not drawn) [compound 288], the “Survival (days) p.o. SSV” value came to 8.4 days in the experiment on P. berghei ANKA strain (setting [6]) and 10.2 days in the experiment on P. berghei ANKA strain (setting [7]). The “Activity (%) p.o. SSV” value in the experiment on P. berghei ANKA strain (setting [6]) came out at 49%; with P. berghei ANKA strain (setting [7]) it was 99%.
Take `O=C(O)C1CCC2(CC1)OOC1(O2)C2CC3CC(C2)CC1C3` (stereo not drawn) [OZ71]: in experiment [2], the “% reduction of adult worms growth at day 49 after per os application of 400 mg/kg, TWR (%)” value amounted to 0% and the “adult worms at day 49, per os 400 mg/kg, DEAD WORM (%)” value is on record as 16%. Also, in experiment [1] (setting [9]), the “Activity (%) po” value was found to be 98% and the “Activity (%) sc” value was 97%. Moreover, the “Activity (%) SSVpo” value in experiment [1] (percent reduction in parasitemia day 3 post-infection, single po dose in standard suspending vehicle (SSV), mice) came out at 98%. For the same compound, in experiment [1] (setting [10]), the “Survival (days) po” value came out at 7.3 days and the “Survival (days) sc” value is recorded as 8.3 days. Besides, the “Survival (days) SSVpo” value in experiment [1] (single po dose in SSV, untreated control 5.6 ± 0.3) is 6.7 days. Moreover, in experiment [3], the “% reduction of schistosomule growth at day 21 after per os application of 200 mg/kg, FWR (%)” value was found to be 85% and the “% reduction of schistosomule growth at day 21 after per os application of 200 mg/kg, TWR (%)” value worked out at 91%. Also, the “IC50 (ng/ml) NF54” value in experiment [4] came out at 3.7 ng/mL (≈ 0.012 µM). The “IC50 (ng/ml) K1” value in experiment [5] is 4.5 ng/mL (≈ 0.0146 µM).
With `CC1(C)COC2(CCC3(CC2)OOC2(CC(C)(C)CC(C)(C)C2)O3)OC1` [OZ36], in experiment [2], the “% reduction of adult worms growth at day 49 after per os application of 400 mg/kg, TWR (%)” value is listed as 0/0% and the “adult worms at day 49, per os 400 mg/kg, DEAD WORM (%)” value is 0/0%. Moreover, in experiment [1] (setting [11]), the “Activity (%) po” value was 0/NA/0% and the “Activity (%) sc” value is 0/NA/0%. In addition, in experiment [1] (untreated control 5.6 ± 0.3), the “Survival (days) po” value is reported as 5.7/NA/5.7 days and the “Survival (days) sc” value was 5.7/NA/5.7 days. Also, in experiment [3], the “% reduction of schistosomule growth at day 21 after per os application of 200 mg/kg, FWR (%)” value was determined as 12% and the “% reduction of schistosomule growth at day 21 after per os application of 200 mg/kg, TWR (%)” value is given as 16%. Further, the “IC50 (ng/ml) NF54” value in experiment [4] was 62 ng/mL (≈ 0.168 µM). Also, the “IC50 (ng/ml) K1” value in experiment [5] was determined as 24 ng/mL (≈ 0.0651 µM).
